Reference: US20210145000A1, “WEED CONTROL FROM APPLICATIONS OF PYRIDINE CARBOXYLIC ACID HERBICIDES AND ACETYL CoA CARBOXYLASE (ACCase) INHIBITORS” (Dow AgroSciences LLC, priority 2018, published 2021)
Values joined by “and” are separate entries in the source; they are usually repeats but may differ in a detail not shown here. Equal entries are not always repeated.

Key:
Assay in all cases: Postemergence herbicidal activity, greenhouse, visual injury
Format in all cases: in vivo
[1] = tested on: barnyardgrass (Echinochloa crus-galli, ECHCG); conditions: post-emergence, read-out: Effect (% visual injury) Obs
Method: (§1) The plants were grown for 7-36 days (d) in a greenhouse with an approximate 14-hour (h) photoperiod which was maintained at about 23° C. during the day and 22° C. during the night. Nutrients and water were added on a regular basis and supplemental lighting was provided with overhead metal halide 1000-Watt lamps as necessary. The plants were employed for testing when they reached the second or third true leaf stage.
(§2) Spray solutions of the experimental compound mixtures were prepared by adding the stock solutions to the appropriate amount of dilution solution to form a 12 mL spray solution in two-way combinations. […] Control plants were sprayed in the same manner with the solvent blank. Application rates for component (a) are in g ae/ha, and application rates for component (b) are in g ai/ha.
(§3) The treated plants and control plants were placed in a greenhouse as described above and watered by sub-irrigation to prevent wash-off of the test compounds. After 20-22 d, the condition of the test plants as compared with that of the control plants was determined visually and scored on a scale of 0 to 100 percent where 0 corresponds to no injury and 100 corresponds to complete kill. […] The Colby method was used to determine the herbicidal effects expected from the mixtures.

[2] = tested on: blackgrass (Alopecurus myosuroides, ALOMY); conditions: post-emergence, read-out: Effect (% visual injury) Obs
Method: as §1, §2, §3

[3] = tested on: common lambsquarters (Chenopodium album L., CHEAL); conditions: post-emergence, read-out: Effect (% visual injury) Obs
Method: as §1, §2, §3

[4] = tested on: giant foxtail (Setaria faberi, SETFA); conditions: post-emergence, read-out: Effect (% visual injury) Obs
Method: as §1, §2, §3

[5] = tested on: grain sorghum (Sorghum vulgare, SORVU); conditions: post-emergence, read-out: Effect (% visual injury) Obs
Method: as §1, §2, §3

[6] = tested on: large crabgrass (Digitaria sanguinalis, DIGSA); conditions: post-emergence, read-out: Effect (% visual injury) Obs
Method: as §1, §2, §3

maize (Zea mays, ZEAMX) = conditions: post-emergence, read-out: Effect (% visual injury) Obs
Method: as §1, §2, §3

[7] = tested on: pigweed (Amaranthus retroflexus, AMARE); conditions: post-emergence, read-out: Effect (% visual injury) Obs
Method: as §1, §2, §3

[8] = tested on: rice (Oryza sativa, ORYSA); conditions: post-emergence, read-out: Effect (% visual injury) Obs
Method: as §1, §2, §3

[9] = tested on: soybean (Glycine max, GLXMA); conditions: post-emergence, read-out: Effect (% visual injury) Obs
Method: as §1, §2, §3

[10] = tested on: sunflower (Helianthus annuus, HELAN); conditions: post-emergence, read-out: Effect (% visual injury) Obs
Method: as §1, §2, §3

[11] = tested on: velvetleaf (Abutilon theophrasti, ABUTH); conditions: post-emergence, read-out: Effect (% visual injury) Obs
Method: as §1, §2, §3

[12] = tested on: wild buckwheat (Polygonum convolvulus, POLCO)
Method: as §1, §2, §3

[13] = tested on: wild oat (Avena fatua, AVEFA); conditions: post-emergence, read-out: Effect (% visual injury) Obs
Method: as §1, §2, §3

[14] = tested on: wild pansy (Viola tricolor, VIOTR); conditions: post-emergence, read-out: Effect (% visual injury) Obs
Method: as §1, §2, §3

[15] = tested on: winter wheat (Triticum aestivum, TRZAW); conditions: post-emergence, read-out: Effect (% visual injury) Obs
Method: as §1, §2, §3

[16] = tested on: chickweed (Stellaria media, STEME); conditions: post-emergence, read-out: Effect (% visual injury) Obs
Method: (§4) Seeds of the desired test plant species were planted in Sun Gro MetroMix® 306 planting mixture, which typically has a pH of 6.0 to 6.8 and an organic matter content of about 30 percent, in plastic pots with a surface area of 103.2 square centimeters (cm^2). When required to ensure good germination and healthy plants, a fungicide treatment and/or other chemical or physical treatment was applied. The plants were grown for 7-36 days (d) in a greenhouse with an approximate 14-hour (h) photoperiod which was maintained at about 23° C. during the day and 22° C. during the night. Nutrients and water were added on a regular basis and supplemental lighting was provided with overhead metal halide 1000-Watt lamps as necessary. The plants were employed for testing when they reached the second or third true leaf stage.
(§5) An emulsifiable concentrate (EC) formulation containing Compound 1 at 100 gai/L was prepared by combining Compound 1 with 1-butyl-2-pyrrolidinone (Tamisolve NxG; 360.5 g/L), benzyl acetate (544.6 g/L) and Agnique MBL 520L surfactant (52.9 g/L). […] The concentrated stock solution was diluted with an aqueous mixture of 1.5% v/v of Agri-dex crop oil concentrate to provide the appropriate application rates. Compound requirements are based upon a 12 milliliter (mL) application volume at a rate of 187 liters per hectare (L/ha). Spray solutions of the experimental compound mixtures were prepared by adding the stock solutions to the appropriate amount of dilution solution to form a 12 mL spray solution in two-way combinations. Formulated compounds were applied to the plant material with an overhead Mandel track sprayer equipped with 8002E nozzles calibrated to deliver 187 L/ha over an application area of 0.503 square meters (m^2) at a spray height of 18 inches (43 centimeters (cm)) above average plant canopy. Control plants were sprayed in the same manner with the solvent blank. Application rates for component (a) are in g ae/ha, and application rates for component (b) are in g ai/ha.
as §3

[17] = tested on: kochia (Kochia scoparia, KCHSC)
Method: as §4, §5, §3

[18] = tested on: poinsettia (Euphorbia heterophylla, EPHHL)
Method: as §4, §5, §3

[19] = tested on: winter rape (Brassica napus, BRSNW); conditions: post-emergence, read-out: Effect (% visual injury) Obs
Method: as §4, §5, §3

[20] = tested on: ivyleaf morningglory (Ipomoea hederacea, IPOHE)
Method: as §4, §5, §3

[21] = Clodinafop-propargyl 30 g ai/ha

## CCCC(=NOCC)C1=C(O)CC(CC(C)SCC)CC1=O (racemic) [Sethoxydim, (±)-(EZ)-2-(1-ethoxyiminobutyl)-5-[2-(ethylthio)propyl]-3-hydroxycyclohex-2-enone]
[1]
  pest or weed control at 140 g/ha: 50%
[2]
  pest or weed control at 140 g/ha: 95%
[3]
  pest or weed control at 140 g/ha: 5%
[4]
  pest or weed control at 140 g/ha: 85%
[5]
  plant injury at 140 g/ha: 100%
[6]
  pest or weed control at 140 g/ha: 60%
Maize (Zea mays, ZEAMX)
  plant injury at 140 g/ha: 75%
[7]
  pest or weed control at 140 g/ha: 0%
[8]
  plant injury at 140 g/ha: 75%
[9]
  plant injury at 140 g/ha: 0%
[10]
  plant injury at 140 g/ha: 0%
[11]
  pest or weed control at 140 g/ha: 0%
[12]; Fallopia convolvulus, post-emergence, read-out: Effect (% visual injury) Obs
  pest or weed control at 140 g/ha: 0%
[13]
  pest or weed control at 140 g/ha: 85%
[14]
  pest or weed control at 140 g/ha: 5%
[15]
  plant injury at 140 g/ha: 60%
[16]
  pest or weed control at 140 g/ha: 10%
[17]; Sethoxydim 140 g ai/ha
  Effect (% visual injury) Obs: 0%
[18]; Sethoxydim 140 g ai/ha
  Effect (% visual injury) Obs: 10%
[19]
  plant injury at 140 g/ha: 0%

## C#CCOC(=O)[C@@H](C)Oc1ccc(Oc2ncc(Cl)cc2F)cc1 [Clodinafop-propargyl, prop-2-ynyl (R)-2-[4-(5-chloro-3-fluoro-2-pyridyloxy)phenoxy]propionate]
[1]; [21]
  pest or weed control: 100%
[2]; [21]
  pest or weed control: 10%
[4]; [21]
  pest or weed control: 98%
[5]; [21]
  plant injury: 100%
[6]; [21]
  pest or weed control: 95%
Maize (Zea mays, ZEAMX); [21]
  plant injury: 100%
[7]; [21]
  pest or weed control: 0%
[8]; [21]
  plant injury: 90%
[9]; [21]
  plant injury: 0%
[10]; [21]
  plant injury: 0%
[11]; [21]
  pest or weed control: 0%
[12]; Fallopia convolvulus, post-emergence, Clodinafop-propargyl 30 g ai/ha, read-out: Effect (% visual injury) Obs
  pest or weed control: 0%
[13]; [21]
  pest or weed control: 90%
[15]; [21]
  plant injury: 0%
[16]; [21]
  pest or weed control at 30 g/ha: 0%
[20]; [21]
  Effect (% visual injury) Obs: 0%
[19]; [21]
  plant injury at 30 g/ha: 0%

## Nc1c(F)c(-c2ccc3cc[nH]c3c2F)nc(C(=O)O)c1Cl [Compound 1]
[1]; Compound 1 10 g ai/ha
  pest or weed control at 10 g/ha: 60%
[2]; Compound 1 5 g ai/ha
  pest or weed control at 5 g/ha: 0%
[2]; Compound 1 10 g ai/ha
  pest or weed control at 10 g/ha: 0%
[3]; Compound 1 5 g ai/ha
  pest or weed control at 5 g/ha: 100%
[3]; Compound 1 10 g ai/ha
  pest or weed control at 10 g/ha: 100%
[4]; Compound 1 10 g ai/ha
  pest or weed control at 10 g/ha: 50%
[5]; Compound 1 10 g ai/ha
  plant injury at 10 g/ha: 50%
[6]; Compound 1 5 g ai/ha
  pest or weed control at 5 g/ha: 0%
[6]; Compound 1 10 g ai/ha
  pest or weed control at 10 g/ha: 10%
Maize (Zea mays, ZEAMX); Compound 1 5 g ai/ha
  plant injury at 5 g/ha: 0%
Maize (Zea mays, ZEAMX); Compound 1 10 g ai/ha
  plant injury at 10 g/ha: 0%
[7]; Compound 1 10 g ai/ha
  pest or weed control at 10 g/ha: 97%
[8]; Compound 1 5 g ai/ha
  plant injury at 5 g/ha: 0%
[8]; Compound 1 10 g ai/ha
  plant injury at 10 g/ha: 10%
[9]; Compound 1 5 g ai/ha
  plant injury at 5 g/ha: 100%
[9]; Compound 1 10 g ai/ha
  plant injury at 10 g/ha: 100%
[10]; Compound 1 5 g ai/ha
  plant injury at 5 g/ha: 95%
[10]; Compound 1 10 g ai/ha
  plant injury at 10 g/ha: 90%
[11]; Compound 1 5 g ai/ha
  pest or weed control at 5 g/ha: 50%
[11]; Compound 1 10 g ai/ha
  pest or weed control at 10 g/ha: 60%
[12]; Compound 1 10 g ai/ha
  Effect (% visual injury) Obs: 75%
[12]; Fallopia convolvulus, post-emergence, Compound 1 10 g ai/ha, read-out: Effect (% visual injury) Obs
  pest or weed control at 10 g/ha: 75%
[13]; Compound 1 5 g ai/ha
  pest or weed control at 5 g/ha: 0%
[13]; Compound 1 10 g ai/ha
  pest or weed control at 10 g/ha: 0%
[14]; Compound 1 10 g ai/ha
  pest or weed control at 10 g/ha: 10%
[15]; Compound 1 5 g ai/ha
  plant injury at 5 g/ha: 0%
[15]; Compound 1 10 g ai/ha
  plant injury at 10 g/ha: 0%
[16]; Compound 1 10 g ai/ha
  pest or weed control at 10 g/ha: 70%
[20]; Compound 1 5 g ai/ha
  Effect (% visual injury) Obs: 10%
[17]; Compound 1 5 g ai/ha
  Effect (% visual injury) Obs: 60%
[17]; Compound 1 10 g ai/ha
  Effect (% visual injury) Obs: 60%
[18]; Compound 1 5 g ai/ha
  Effect (% visual injury) Obs: 100% and 97%
[18]; Compound 1 10 g ai/ha
  Effect (% visual injury) Obs: 97%
[19]; Compound 1 5 g ai/ha
  plant injury at 5 g/ha: 60%
[19]; Compound 1 10 g ai/ha
  plant injury at 10 g/ha: 45%
